Measured values: patent US9163042B2, “Prodrugs of pyridone amides useful as modulators of sodium channels” (VERTEX PHARMACEUTICALS INCORPORATED, priority 2013, dated 2015)
Read-outs that look alike come from different tables or passages of the source.

What was measured:
human Nav1.8 = human Nav1.8 (Homo sapiens (Human), UniProt Q9Y5Y9); assay: E-VIPR optical membrane potential assay with electrical stimulation (NaV1.8 IC50 activity); assay type: cell-based
Source text: Sodium channels are voltage-dependent proteins that can be activated by inducing membrane voltage changes by applying electric fields. The electrical stimulation instrument and methods of use are described in Ion Channel Assay Methods PCT/US01/21652, herein incorporated by reference and are referred to as E-VIPR. The instrument comprises a microtiter plate handler, an optical system for exciting the coumarin dye while simultaneously recording the coumarin and oxonol emissions, a waveform generator, a current- or voltage-controlled amplifier, and a device for inserting electrodes in well. Under integrated computer control, this instrument passes user-programmed electrical stimulus protocols to cells within the wells of the microtiter plate.
24 hours before the assay on E-VIPR, HEK cells expressing human Nav1.8 were seeded in 384-well poly-lysine coated plates at 15,000-20,000 cells per well. […] Cells were grown in vented cap flasks, in 90% humidity and 5% CO2.
1) Pre-spotted compounds (in neat DMSO) into compound plates. […] Final compound plate volume was 80 μL (80-fold intermediate dilution from 1 μL DMSO spot; 160-fold final dilution after transfer to cell plate).
2) Prepared Hexyl Dye Solution.
3) Prepared cell plates. On the day of the assay, medium was aspirated and cells were washed three times with 100 μL of Bath1 Solution, maintaining 25 μL residual volume in each well.
4) Dispensed 25 μL per well of Hexyl Dye Solution into cell plates. Incubated for 20-35 minutes at room temp or ambient conditions.
5) Dispensed 80 μL per well of Bath1 into compound plates. Acid Yellow-17 (1 mM) was added and Potassium Chloride was altered from 4.5 to 20 mM depending on the NaV subtype and assay sensitivity.
6) Washed cell plates three times with 100 μL per well of Bath1, leaving 25 μL of residual volume. […] Incubated for 20-35 minutes at room temp/ambient condition.
7) Read Plate on E-VIPR. […] A pre-stimulus recording was performed for 0.5 seconds to obtain the un-stimulated intensities baseline. The stimulatory waveform was followed by 0.5 seconds of post-stimulation recording to examine the relaxation to the resting state.
Data was analyzed and reported as normalized ratios of emission intensities measured in the 460 nm and 580 nm channels. The response as a function of time was reported as the ratios obtained using the following formula: […]
The data was further reduced by calculating the initial (Ri) and final (Rf) ratios. These were the average ratio values during part or all of the pre-stimulation period, and during sample points during the stimulation period. The response to the stimulus R=Rf/Ri was then calculated and reported as a function of time.
Control responses were obtained by performing assays in the presence of a compound with the desired properties (positive control), such as tetracaine, and in the absence of pharmacological agents (negative control). Responses to the negative (N) and positive (P) controls were calculated as above.

Aqueous solubility study = assay type: physicochemical; conditions: for solubility at 24 h: thermodynamic from solid
Experimental: The aqueous solubility of compound 9 and 9a were determined according to the following procedure. Solubility data was determined at ambient conditions by equilibrating the compound with water on a shaking bed for 24 hours, followed by centrifugation and separation of the saturated solutions. The pH value of each media was measured before centrifugation, and the saturated solutions were assayed by HPLC.

[1] = Rat oral pharmacokinetic study; assay type: in vivo, Sprague Dawley rats; conditions: Sprague Dawley, mean ± SD
Experimental: (§1) Sample Analysis. […] Before extraction, plasma samples were diluted using blank plasma at an appropriate dilution factor, as necessary, depending on the dose level. […] After centrifugation, the supernatant extract (10 μL) was injected onto the LC/MS/MS system. The HPLC system included a Phenomenex Synergy Kinetix C8 column, 2.6 micron, 2.0 mm diameter×75 mm long eluted with a gradient mobile phase consisting of 0.1% formic acid in water or in acetonitrile.
(§2) The analytes were detected by MS/MS with Electrospray Ionization (ESI) in the mode of multiple reaction monitoring (MRM). […] The intra-day and inter-day assay accuracy was within 20% of the nominal values. The intra- and inter-day assay variability was ≦20%.
(§3) Pharmacokinetic Data Analysis.
(§4) Key pharmacokinetic parameters such as AUCall, AUCextra, Cmax, tmax, Cl, Vss and t1/2 were determined.
(§5) Statistical Data Analysis. Descriptive statistical data of pharmacokinetic parameters were calculated, including the mean, standard deviation (SD), using Watson LIMS version 7.4 SP3 or Microsoft Excel 2000.
Groups of male and female Sprague Dawley rats (n=3 per dose group) were administered single nominal oral doses of 10, 100, 400, 640, 1000 mg/kg (for males) and 30, 100, 300, 640, 1000 mg/kg (for females) of compound 9 by gavage. Compound 9 was formulated in either 30% PEG400 and 10% TPGS in water or 5% TPGS, 5% PVP-K30 in 50 mM Citrate, pH 5. Animals had free access to food and water before and after dosing. Blood samples (approximately 0.25 mL each) were collected via a carotid artery catheter prior to dosing and at 0.25, 0.5, 1, 2, 4, 8, 12, 24, 48 and 72 hours post dose. Each blood sample was collected into a tube that was kept on wet ice and contained potassium EDTA as the anticoagulant. Plasma was separated and stored at approximately −70° C. until analysis.

[2] = Rat IV pharmacokinetic study; assay type: in vivo, Sprague Dawley rats; conditions: Sprague Dawley, male rat, single IV bolus 1 mg/kg of compound 9, DMI vehicle, analyte 9a in plasma; for AUC: male, rat, plasma, iv, 1 mg/kg
Experimental: as §1, §2, §3, §4, §5
Male Sprague Dawley rats (n=3) were administered a single nominal IV bolus dose of 1 mg/kg of compound 9 via a jugular vein cannula. […] Animals had free access to food and water before and after dosing. Blood samples (approximately 0.25 mL each) were collected via a carotid artery catheter prior to dosing and at 5 min, 10 min, 0.25, 0.5, 1, 2, 4, 8, 12, 24 hours post dose. Each blood sample was collected into a tube that was kept on wet ice and contained potassium EDTA as the anticoagulant. Plasma was separated and stored at approximately −70° C. until analysis.
Plasma concentration vs. time data were subjected to noncompartmental pharmacokinetic (PK) analysis.

[3] = Chemical and physical stability of crystalline Form B (XRPD, HPLC impurity profile, appearance); assay type: physicochemical
Source text: Chemically and physically stable means no changes were observed on the X-ray powder diffraction and HPLC impurity profiles (e.g., less than 0.2% variance) and there were no observed changes in physical appearance of the samples.

[4] = female rat, single PO 30 mg/kg of compound 9, 5% TPGS/5% PVP-K30/50 mM Citrate pH 5, analyte 9a in plasma
[5] = female rat, single PO 100 mg/kg of compound 9, 5% TPGS/5% PVP-K30/50 mM Citrate pH 5, analyte 9a in plasma
[6] = female rat, single PO 300 mg/kg of compound 9, 5% TPGS/5% PVP-K30/50 mM Citrate pH 5, analyte 9a in plasma
[7] = female rat, single PO 640 mg/kg of compound 9, 5% TPGS/5% PVP-K30/50 mM Citrate pH 5, analyte 9a in plasma
[8] = female rat, single PO 1000 mg/kg of compound 9, 5% TPGS/5% PVP-K30/50 mM Citrate pH 5, analyte 9a in plasma
[9] = male rat, single PO 10 mg/kg of compound 9, 5% TPGS/5% PVP-K30/50 mM Citrate pH 5, analyte 9a in plasma
[10] = male rat, single PO 100 mg/kg of compound 9, 5% TPGS/5% PVP-K30/50 mM Citrate pH 5, analyte 9a in plasma
[11] = male rat, single PO 400 mg/kg of compound 9, 5% TPGS/5% PVP-K30/50 mM Citrate pH 5, analyte 9a in plasma
[12] = male rat, single PO 640 mg/kg of compound 9, 5% TPGS/5% PVP-K30/50 mM Citrate pH 5, analyte 9a in plasma
[13] = male rat, single PO 1000 mg/kg of compound 9, 5% TPGS/5% PVP-K30/50 mM Citrate pH 5, analyte 9a in plasma

Sequence of human Nav1.8 (Q9Y5Y9 whole entry): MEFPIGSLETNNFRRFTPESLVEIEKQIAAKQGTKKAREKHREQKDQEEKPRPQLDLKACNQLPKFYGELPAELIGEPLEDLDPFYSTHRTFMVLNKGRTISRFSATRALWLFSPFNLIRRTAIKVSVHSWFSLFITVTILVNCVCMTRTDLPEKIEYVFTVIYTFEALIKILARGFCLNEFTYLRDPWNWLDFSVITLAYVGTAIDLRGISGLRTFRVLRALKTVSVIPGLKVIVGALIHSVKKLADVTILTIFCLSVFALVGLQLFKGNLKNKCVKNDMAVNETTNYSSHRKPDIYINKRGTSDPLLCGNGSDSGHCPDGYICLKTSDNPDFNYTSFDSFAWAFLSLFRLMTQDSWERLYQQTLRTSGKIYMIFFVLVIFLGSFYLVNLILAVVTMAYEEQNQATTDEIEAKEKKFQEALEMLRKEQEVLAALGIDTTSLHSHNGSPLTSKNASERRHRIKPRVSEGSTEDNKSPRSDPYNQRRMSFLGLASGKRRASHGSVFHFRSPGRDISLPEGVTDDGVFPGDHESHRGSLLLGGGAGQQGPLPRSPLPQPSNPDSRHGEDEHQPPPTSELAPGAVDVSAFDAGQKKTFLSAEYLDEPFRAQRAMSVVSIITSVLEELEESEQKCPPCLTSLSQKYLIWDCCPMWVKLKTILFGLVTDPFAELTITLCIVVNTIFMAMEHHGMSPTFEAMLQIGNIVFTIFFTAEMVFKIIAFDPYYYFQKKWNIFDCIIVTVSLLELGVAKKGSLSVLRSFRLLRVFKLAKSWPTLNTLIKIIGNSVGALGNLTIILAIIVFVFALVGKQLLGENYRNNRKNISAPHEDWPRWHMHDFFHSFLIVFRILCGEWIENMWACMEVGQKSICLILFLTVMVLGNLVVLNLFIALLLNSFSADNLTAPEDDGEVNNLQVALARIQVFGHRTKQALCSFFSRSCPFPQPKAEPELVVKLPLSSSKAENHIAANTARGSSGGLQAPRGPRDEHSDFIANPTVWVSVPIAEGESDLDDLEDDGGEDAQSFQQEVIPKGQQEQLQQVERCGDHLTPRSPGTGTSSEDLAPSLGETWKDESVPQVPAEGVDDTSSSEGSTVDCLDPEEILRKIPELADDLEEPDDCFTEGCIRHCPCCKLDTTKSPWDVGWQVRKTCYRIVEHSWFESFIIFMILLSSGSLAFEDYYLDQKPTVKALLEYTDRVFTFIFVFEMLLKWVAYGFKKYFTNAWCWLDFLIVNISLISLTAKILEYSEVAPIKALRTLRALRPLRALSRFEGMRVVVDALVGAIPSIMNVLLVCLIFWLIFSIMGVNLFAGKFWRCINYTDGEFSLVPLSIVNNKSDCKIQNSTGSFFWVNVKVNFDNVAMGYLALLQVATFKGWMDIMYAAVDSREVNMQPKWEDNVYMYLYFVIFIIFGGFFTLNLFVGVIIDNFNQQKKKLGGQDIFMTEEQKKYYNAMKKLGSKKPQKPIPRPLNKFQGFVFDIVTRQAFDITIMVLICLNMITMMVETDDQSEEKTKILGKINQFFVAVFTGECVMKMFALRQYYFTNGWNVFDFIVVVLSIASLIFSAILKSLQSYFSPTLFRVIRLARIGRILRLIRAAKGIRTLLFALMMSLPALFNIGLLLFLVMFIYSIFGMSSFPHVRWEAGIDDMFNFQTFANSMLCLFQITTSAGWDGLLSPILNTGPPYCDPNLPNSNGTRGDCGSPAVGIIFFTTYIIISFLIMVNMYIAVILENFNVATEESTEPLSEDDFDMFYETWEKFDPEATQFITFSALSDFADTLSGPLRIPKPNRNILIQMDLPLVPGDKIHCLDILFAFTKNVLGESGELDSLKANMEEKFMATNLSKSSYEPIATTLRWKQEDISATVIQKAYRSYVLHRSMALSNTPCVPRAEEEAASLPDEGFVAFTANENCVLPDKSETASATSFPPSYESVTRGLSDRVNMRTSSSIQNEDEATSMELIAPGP

COc1cc(F)ccc1Oc1cc(Cl)c(Cl)cc1C(=O)Nc1ccn(COP(=O)(O)O)c(=O)c1 [Compound 1, (4-(4,5-dichloro-2-(4-fluoro-2-methoxyphenoxy)benzamido)-2-oxopyridin-1(2H)-yl)methyl dihydrogen phosphate]
IC50 (human Nav1.8): 0.004 µM

COc1cc(F)ccc1Oc1cc(C(F)(F)C(F)(F)F)ccc1C(=O)Nc1ccn(COP(=O)(O)O)c(=O)c1 [Compound 2, (4-(2-(4-fluoro-2-methoxyphenoxy)-4-(perfluoroethyl)benzamido)-2-oxopyridin-1(2H)-yl)methyl dihydrogen phosphate]
IC50 (human Nav1.8): 0.028 µM

Cc1cc(F)ccc1Oc1cc(C(F)(F)F)ccc1C(=O)Nc1cc[nH]c(=O)c1 [Compound 9a, 2-(4-fluoro-2-methylphenoxy)-N-(2-oxo-1,2-dihydropyridin-4-yl)-4-(trifluoromethyl)benzamide]
solubility at 24 h (Aqueous solubility study; aqueous medium, simulated gastric fluid, pH 1.2, crystalline, ambient conditions, 24 hours, read-out: Solubility): < 1 µg/mL
Solubility (Aqueous solubility study; pH 6.0, crystalline, ambient conditions, 24 hours): <1 µg/mL
solubility at 24 h (Aqueous solubility study; water, pH 6.0, read-out: aqueous solubility in water): < 1 µg/mL
AUC [1, 4]: 99200 ± 6880 ng·h/mL
Cmax [1, 4]: 3330 ± 430 ng/mL
Tmax [1, 4]: 6.67 ± 2.31 h
half-life [1, 4]: 10.8 ± 1.6 h
AUC [1, 5]: 187000 ± 17500 ng·h/mL
Cmax [1, 5]: 5820 ± 580 ng/mL
Tmax [1, 5]: 12 h
half-life [1, 5]: 9.15 ± 0.44 h
AUC [1, 6]: 282000 ± 74200 ng·h/mL
Cmax [1, 6]: 7900 ± 1300 ng/mL
Tmax [1, 6]: 10.7 ± 2.31 h
half-life [1, 6]: 13.1 ± 2.65 h
AUC [1, 7]: 324000 ± 32800 ng·h/mL
Cmax [1, 7]: 10000 ± 1450 ng/mL
Tmax [1, 7]: 9.33 ± 2.31 h
half-life [1, 7]: 7.51 ± 1.86 h
AUC [1, 8]: 345000 ± 69600 ng·h/mL
Cmax [1, 8]: 10600 ± 3580 ng/mL
Tmax [1, 8]: 13.3 ± 9.24 h
half-life [1, 8]: 7.9 ± 3.37 h
AUC [1, 9]: 3600 ± 240 ng·h/mL
Cmax [1, 9]: 290 ± 50 ng/mL
Tmax [1, 9]: 5.33 ± 2.31 h
half-life [1, 9]: 3.8 ± 0.73 h
AUC [1, 10]: 24800 ± 4600 ng·h/mL
Cmax [1, 10]: 1670 ± 190 ng/mL
Tmax [1, 10]: 8 h
half-life [1, 10]: 5.36 ± 2.3 h
AUC [1, 11]: 68600 ± 25700 ng·h/mL
Cmax [1, 11]: 3740 ± 1250 ng/mL
Tmax [1, 11]: 5.67 ± 4.04 h
half-life [1, 11]: 5.2 ± 1.96 h
AUC [1, 12]: 74900 ± 24100 ng·h/mL
Cmax [1, 12]: 4760 ± 980 ng/mL
Tmax [1, 12]: 6 ± 3.46 h
half-life [1, 12]: 6.91 ± 1.84 h
AUC [1, 13]: 88500 ± 41000 ng·h/mL
Cmax [1, 13]: 4540 ± 910 ng/mL
Tmax [1, 13]: 6.67 ± 2.31 h
half-life [1, 13]: 7.95 ± 2.24 h
C0 [2]: 259 ng/mL
clearance [2]: 18.7 mL/min/kg
Vd ([2]; read-out: Vss): 3.77 L/kg
half-life ([2]; read-out: t½ (converted)): 2.43 h
AUC ([2]; read-out: AUCall): 592 ng·h/mL
AUC ([2]; read-out: AUCextra): 611 ng·h/mL

Cc1cc(F)ccc1Oc1ccc(C(F)(F)F)cc1C(=O)Nc1ccn(COP(=O)(O)O)c(=O)c1 [Compound 10, (4-(2-(4-fluoro-2-methylphenoxy)-5-(trifluoromethyl)benzamido)-2-oxopyridin-1(2H)-yl)methyl dihydrogen phosphate]
IC50 (human Nav1.8): 0.086 µM

Cc1cc(F)ccc1Oc1cc(Cl)ccc1C(=O)Nc1ccn(COP(=O)(O)O)c(=O)c1 [Compound 13, (4-(4-chloro-2-(4-fluoro-2-methylphenoxy)benzamido)-2-oxopyridin-1(2H)-yl)methyl dihydrogen phosphate]
IC50 (human Nav1.8): 0.329 µM

O=C(Nc1ccn(COP(=O)(O)O)c(=O)c1)c1cc(C(F)(F)F)ccc1Oc1ccc(F)cc1 [Compound 18, (4-(2-(4-fluorophenoxy)-5-(trifluoromethyl)benzamido)-2-oxopyridin-1(2H)-yl)methyl dihydrogen phosphate]
IC50 (human Nav1.8): 0.457 µM

Cc1cc(F)ccc1Oc1cc(C(F)(F)F)ccc1C(=O)Nc1ccn(COP(=O)(O)O)c(=O)c1 [crystalline Form B, (4-(2-(4-fluoro-2-methylphenoxy)-4-(trifluoromethyl)benzamido)-2-oxopyridin-1(2H)-yl)methyl dihydrogen phosphate]
chemical and physical stability ([3]; 5° C./dry, 40° C./dry, 25° C. with relative humidity of up to 60%, 40° C. with relative humidity of up to 75%): chemically and physically stable for at least one month
chemical and physical stability ([3]; open dish at 40° C., 40° C. with RH up to 75%, 25° C. with RH up to 60%, closed dish at 5° C. with a desiccator): chemically and physically stable for at least three months
